From patent publication US20250145715A1, “B7-H3 TARGETING FUSION PROTEINS AND METHODS OF USE THEREOF” (GT Biopharma, Inc., priority 2021, published 2025)

Tests used:
Type in all cases: cell-based, human
[1] = system: OVCAR5 ovarian cancer cells; assay: NK cell CD107a / IFNγ flow cytometry against OVCAR5; details: 30 nM, E:T 2:1, 4 hrs; vs no treatment and rhIL-15 alone
Experimental: (§1) Healthy donor or ovarian cancer PBMC cells were incubated with ovarian tumor targets at 2:1 E:T ratio for 4 hrs with 30 nM TriKE or control condition. FIG. 30A is a graph illustrating pooled proportion of NK cells from healthy donors expressing CD107a+ (degranulation) against OVCAR8 targets (N=8). FIG. 30B is a graph illustrating pooled proportion of NK cells from healthy donors expressing IFNγ cytokine production against OVCAR8 targets (N=8). FIG. 30C is a graph illustrating pooled proportion of NK cells from healthy donors expressing CD107a+ (degranulation) against OVCAR3 targets (N=4). […] FIG. 30I is a graph illustrating that tumor killing was evaluated using IncuCyte imaging assay. […] The percentage of Live (Nuclight Red+Caspase 3/7−) tumor cells was quantified over a 48-h period and normalized to tumor alone. Readings were obtained every 15 min (representative of four separate experiments). * p<0.05, ** p<0.01, *** p<0.001, and **** p<0.0001.
(§2) ADCC was measured in a flow cytometry assay by evaluating degranulation via CD107a (lysosomal-associated membrane protein LAMP-1) and intracellular IFNγ production. […] Samples were washed and evaluated in an LSRII flow cytometer (BD Biosciences, San Jose, CA, USA).
(§3) The ability of cam1615B7-H3 TriKE to mediate NK cell activity against ovarian cancer cells was evaluated. […]

[2] = system: NCI-H322 lung cancer cells; assay: NK cell CD107a / IFNγ flow cytometry against NCI-H322; details: normal donor PBMCs, vs controls
From the text: FIGS. 24A-24F illustrate that B7-H3 TriKE enhances NK cell function against lung tumor targets. FIG. 24A is a graph showing pooled analysis of proportion of NK cells from healthy donors expressing CD107a+ against A549(N=6) tumor targets. FIG. 24B is a graph showing pooled analysis of proportion of NK cells from healthy donors expressing IFNγ against A549(N=6) tumor targets. FIG. 24C is a graph showing pooled analysis of proportion of NK cells from healthy donors expressing CD107a+ against NCI-H322 (N=5) tumor targets. FIG. 24D is a graph showing pooled analysis of proportion of NK cells from healthy donors expressing IFNγ against NCI-H322 (N=5) tumor targets. FIG. 24E is a graph showing pooled proportion of NK cells from healthy donors (black bars) or lung cancer patients (white bars) expressing CD107a+ against NCI-H460 (N=7). FIG. 24F is a graph showing pooled proportion of NK cells from healthy donors (black bars) or lung cancer patients (white bars) expressing IFNγ against NCI-H460 (N=7). ** p<0.01, *** p<0.001, and **** p<0.0001.
ADCC was measured in a flow cytometry assay by evaluating degranulation via CD107a (lysosomal-associated membrane protein LAMP-1) and intracellular IFNγ production. […] Samples were washed and evaluated in an LSRII flow cytometer (BD Biosciences, San Jose, CA, USA). […]

[3] = system: MA-148 ovarian cancer cells; assay: NK cell CD107a / IFNγ flow cytometry against MA-148; details: vs controls
Experimental: FIG. 29A is a graph illustrating pooled proportion of NK cells from healthy donors expressing CD107a+ (degranulation) against OVCAR8 and MA148 targets. FIG. 29B is a graph illustrating pooled proportion of NK cells from healthy donors expressing IFNγ cytokine production against OVCAR8 and MA148 targets.
as §1, with “(N=8).” for “(N=8). FIG. 30B is a graph illustrating pooled proportion of NK cells from healthy donors expressing IFNγ cytokine production against OVCAR8 targets (N=8). FIG. 30C is a graph illustrating pooled proportion of NK cells from healthy donors expressing CD107a+ (degranulation) against OVCAR3 targets (N=4).”
as §2, §3

For “cam1615B7-H3: second-generation TriKE: humanized camelid anti-CD16 VHH, human wild-type IL-15, anti-B7-H3 mAb 376.96 scFv; SEQ ID NO:1”, the “NK cell degranulation against OVCAR5” value [1] was “robust”, the “NK cell intracellular IFNγ production against OVCAR5” value [1] was “robust” and the “NK cell activation against NCI-H322” value [2] was “significantly and robustly improved NK cell activation”. The “NK cell activity against MA-148” value ([3]; normal donor NK cells) was “robust activity” and the “NK cell degranulation against MA-148” value ([3]; ovarian-cancer-derived ascites samples) was “significantly enhanced NK cell degranulation”.
